From ChEMBL document CHEMBL4138090, “4-Phenyl quinoline derivatives as potential serotonin receptor ligands with antiproliferative activity” (Eur J Med Chem, 2017)
pIC50: −log10 of the molar value. The source made the active and inactive calls. The rule behind the calls is not given here.

Legend:
[1] = target: 5-hydroxytryptamine receptor 2A (Homo sapiens) (UniProt P28223); assay: Antagonist activity at 5-HT2A receptor in human MCF7 cells assessed as inhibition of serotonin-induced calcium flux at 5 uM measured at 5 secs time interval for 2 mins by Fluo-4AM dye based fluorescence microscopic analysis; format: functional, cell-based
5-hydroxytryptamine receptor 2A (Homo sapiens), sequence (P28223 whole entry): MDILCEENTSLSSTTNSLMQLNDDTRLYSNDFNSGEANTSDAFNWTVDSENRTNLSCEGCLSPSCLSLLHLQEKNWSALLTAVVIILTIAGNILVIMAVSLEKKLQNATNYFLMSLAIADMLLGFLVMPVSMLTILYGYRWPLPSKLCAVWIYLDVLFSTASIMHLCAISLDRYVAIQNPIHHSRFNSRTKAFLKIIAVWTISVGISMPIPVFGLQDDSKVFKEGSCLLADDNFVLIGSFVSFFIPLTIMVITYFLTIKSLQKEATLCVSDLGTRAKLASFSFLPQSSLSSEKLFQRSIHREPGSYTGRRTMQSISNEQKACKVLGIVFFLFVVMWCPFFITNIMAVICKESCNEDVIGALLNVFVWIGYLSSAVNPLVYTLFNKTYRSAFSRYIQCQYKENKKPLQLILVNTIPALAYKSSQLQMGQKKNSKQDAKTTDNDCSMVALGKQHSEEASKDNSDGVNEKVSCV

MCF7 [2] = assay: Induction of apoptosis in human MCF7 cells assessed as early apoptotic cells at 5 uM after 48 hrs by Annexin V-FITC/propidium iodide staining based flow cytometry; format: functional, cell-based
MCF7 [3] = assay: Induction of morphological changes in human MCF7 cells assessed as cell detachment at 5 uM after 72 hrs; format: functional, cell-based
[4] = Cytotoxicity against HEK293 cells assessed as reduction in cell viability after 72 hrs by MTT assay; format: cell-based; settings: human, read-out: LD50
MCF7 [5] = assay: Antiproliferative activity against human MCF7 cells at 5 uM after 72 hrs in presence of serotonin by MTT assay; format: functional, cell-based
MCF7 [6] = assay: Cell cycle arrest in human MCF7 cells assessed as accumulation at sub-G0/G1 phase after 48 hrs by propidium iodide staining based flow cytometry; format: functional
MCF7 [7] = assay: Induction of apoptosis in human MCF7 cells at 5 uM after 48 hrs by Annexin V-FITC/propidium iodide staining based flow cytometry; format: functional, cell-based
MCF7 [8] = assay: Cell cycle arrest in human MCF7 cells assessed as accumulation at G1/S phase after 48 hrs by propidium iodide staining based flow cytometry; format: functional
MCF7 [9] = assay: Antiproliferative activity against human MCF7 cells at 5 uM after 72 hrs by MTT assay; format: functional, cell-based
MCF7 [10] = assay: Induction of morphological changes in human MCF7 cells assessed as loss in cellular integrity at 5 uM after 72 hrs; format: functional, cell-based
MCF7 [11] = assay: Cell cycle arrest in human MCF7 cells assessed as accumulation at G2/M phase after 48 hrs by propidium iodide staining based flow cytometry; format: functional
[12] = target: 5-hydroxytryptamine receptor 2A (Homo sapiens) (UniProt P28223); assay: Antagonist activity at 5-HT2A receptor in human MCF7 cells assessed as reduction in ERK1/2 phosphorylation at 5 uM after 24 to 48 hrs by Western blot analysis relative to control; format: functional, cell-based
MCF7 [13] = assay: Antiproliferative activity against human MCF7 cells after 72 hrs by MTT assay; format: functional, cell-based; settings: MCF7, 72 h

Structure (SMILES) | inhibition [1] | Activity (MCF7 [2]) | Activity (MCF7 [3]) | CC50 at 72 h [4] | Activity (MCF7 [5]) | Activity (MCF7 [6]) | Activity (MCF7 [7]) | Activity (MCF7 [8]) | Activity (MCF7 [9]) | Activity (MCF7 [10]) | Activity (MCF7 [11]) | inhibition [12] | pIC50 (MCF7 [13])
Cc1c(N2CCN(C)CC2)nc2ccccc2c1-c1ccccc1 | Active | – | – | – | – | – | – | – | – | – | – | – | –
CCN1CCN(c2nc3ccccc3c(-c3ccccc3)c2C)CC1 | Active | Active | Active | > 24 µM | inactive | Active | Active | inactive | Active | Active | inactive | > 50% | 5.21
CCN1CCN(c2nc3ccccc3c(-c3ccccc3)c2-c2ccccc2)CC1 | Active | – | – | > 24 µM | inactive | – | – | – | Active | – | – | – | 5.13
